In US20240228482A1, “COMPOUNDS, COMPOSITIONS AND METHODS OF TREATING CANCER” (HOTSPOT THERAPEUTICS, INC., priority 2021, published 2024):

Molecular target: T1, CBL-B (Homo sapiens, UniProt Q13191)
T1 construct: GST
Assay: CBL-B TR-FRET IC50 screening (E1/E2 ubiquitination, Biotin-Ubiquitin, Anti GST-Tb donor / Streptavidin-d2 acceptor)
Format: biochemical
Conditions: CBL-B 10 nM final; 11-point titration from 100 uM; binned A-F; read-out: CBL-B TR-FRET activity IC50

T1 sequence (Q13191 whole entry): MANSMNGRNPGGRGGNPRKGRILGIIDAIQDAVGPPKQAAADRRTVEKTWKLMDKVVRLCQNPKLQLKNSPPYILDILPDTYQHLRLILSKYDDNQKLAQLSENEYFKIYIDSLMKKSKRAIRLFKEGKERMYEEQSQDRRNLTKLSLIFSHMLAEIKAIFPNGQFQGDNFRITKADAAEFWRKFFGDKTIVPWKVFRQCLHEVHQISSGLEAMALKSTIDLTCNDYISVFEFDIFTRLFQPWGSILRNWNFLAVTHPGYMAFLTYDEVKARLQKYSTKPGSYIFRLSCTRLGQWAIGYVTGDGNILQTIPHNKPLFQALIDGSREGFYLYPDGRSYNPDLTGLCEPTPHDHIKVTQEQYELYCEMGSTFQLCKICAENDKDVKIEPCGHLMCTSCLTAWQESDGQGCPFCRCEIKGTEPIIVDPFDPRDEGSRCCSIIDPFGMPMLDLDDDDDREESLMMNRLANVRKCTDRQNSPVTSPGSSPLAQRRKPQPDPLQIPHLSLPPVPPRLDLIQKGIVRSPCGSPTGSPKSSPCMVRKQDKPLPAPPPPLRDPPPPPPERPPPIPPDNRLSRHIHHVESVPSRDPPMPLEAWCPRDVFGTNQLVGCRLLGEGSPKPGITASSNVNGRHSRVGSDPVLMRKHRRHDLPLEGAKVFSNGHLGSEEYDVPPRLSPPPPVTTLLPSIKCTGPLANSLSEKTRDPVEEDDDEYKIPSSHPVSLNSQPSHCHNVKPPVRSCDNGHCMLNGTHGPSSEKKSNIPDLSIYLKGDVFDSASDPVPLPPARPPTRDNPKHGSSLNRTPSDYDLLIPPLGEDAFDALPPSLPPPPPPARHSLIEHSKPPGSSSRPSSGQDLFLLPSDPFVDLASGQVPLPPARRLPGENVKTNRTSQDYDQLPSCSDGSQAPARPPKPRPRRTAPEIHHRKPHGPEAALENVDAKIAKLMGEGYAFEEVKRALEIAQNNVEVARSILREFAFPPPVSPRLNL

Row | SMILES | IC50
1 | COC1CCN(Cc2cc(C(F)(F)F)c3cn(-c4cccc([C@H](c5nncs5)C5CCC5)c4)c(=O)n3c2)CC1 [Compound 330] | 301 to 1000 nM
2 | C[C@H]1CCCN(C(c2cc(C(F)(F)F)c3cn(-c4cccc(C5(Cc6nncn6C)COC5)c4)c(=O)n3c2)C(F)(F)F)C1 (single isomer, unassigned) [Compound 196] | 301 to 1000 nM
3 | Cn1cnnc1CC1(c2cccc(-n3cc4c(C(F)(F)F)cc(CN5CC(F)C5)cn4c3=O)c2)COC1 [Compound 23] | < 100 nM
4 | Cn1cnnc1[C@@H](c1cccc(-n2cc3c(C(F)(F)F)cc(CN4CCC[C@H](C(F)(F)F)C4)cn3c2=O)c1)C1CCC1 (single isomer, unassigned) [Compound 271] | < 100 nM
5 | Cn1cnnc1CC1(c2cccc(-n3cc4c(C(F)(F)F)cc(CNCCO)cn4c3=O)c2)COC1 [Compound 75] | 100 to 300 nM
6 | C[C@H]1CCCN(Cc2cc(C(F)(F)F)c3cn(-c4cccc(C5(c6nncn6C)CC6(CCC6)C5)c4)c(=O)n3c2)C1 [Compound 310] | < 100 nM
7 | CC(c1cc(C(F)(F)F)c2cn(-c3cccc(C4(Cc5nncn5C)COC4)c3)c(=O)n2c1)N1CCC[C@H](C)C1 (single isomer, unassigned) [Compound 120] | < 100 nM
8 | [2H]C([2H])([2H])n1cnnc1[C@]1(c2cccc(-n3cc4c(C(F)(F)F)cc(CN5CCC[C@H](C)C5)cn4c3=O)c2)C[C@@H](C)C1 (single isomer, unassigned) [Compound 214] | < 100 nM
9 | Cn1cnnc1CC1(c2cccc(-n3cc4c(C(F)(F)F)cc(CN5CC6(CC6)C5)cn4c3=O)c2)COC1 [Compound 21] | < 100 nM
10 | Cc1c[nH]nc1[C@H](c1cccc(-n2cc3c(C(F)(F)F)cc(CN4CCO[C@H](C)C4)cn3c2=O)c1)C1COC1 [Compound 267] | > 10000 nM
11 | C[C@@H](c1cc(C(F)(F)F)c2cn(-c3cccc(C4(Cc5nncn5C)COC4)c3)c(=O)n2c1)N1CC[C@H](F)C1 [Compound 39] | < 100 nM
12 | C[C@H](c1cc(C(F)(F)F)c2cn(-c3cccc(C4(Cc5nncn5C)COC4)c3)c(=O)n2c1)N1CCC(F)CC1 [Compound 34] | < 100 nM
13 | CC(c1cc(C(F)(F)F)c2cn(-c3cccc(C4(Cc5nncn5C)COC4)c3)c(=O)n2c1)N1CCC[C@H](C)C1 (single isomer, unassigned) [Compound 119] | < 100 nM
14 | C[C@H]1CCN(Cc2cc(C(F)(F)F)c3cn(-c4cccc([C@H](c5nncn5C)C5CCC5)c4)c(=O)n3c2)C1 [Compound 247] | < 100 nM
15 | Cn1cnnc1C1(c2cccc(-n3cc4c(C(F)(F)F)cc(C#N)cn4c3=O)c2)CC2(CC2)C1 [Compound 113] | 301 to 1000 nM
16 | C[C@H]1CCCCN1Cc1cc(C(F)(F)F)c2cn(-c3cccc([C@H](c4nncn4C)C4CCC4)c3)c(=O)n2c1 [Compound 362_P2] | 100 to 300 nM
17 | C[C@H]1CCCN(Cc2cc(C(F)(F)F)c3cn(-c4cccc([C@@H](c5nncn5C)C5CCC5)c4)c(=O)n3c2)C1 [Compound 86] | 301 to 1000 nM
18 | Cn1cnnc1CC1(c2cccc(-n3cc4c(C(F)(F)F)cc(CN5CCNC(=O)C5)cn4c3=O)c2)COC1 [Compound 106] | 100 to 300 nM
19 | COCCn1cc(C)c([C@@H](c2cccc(-n3cc4c(C(F)(F)F)cc(CN5CCC[C@H](C)C5)cn4c3=O)c2)C2CCC2)n1 (single isomer, unassigned) [Compound 335] | > 10000 nM
20 | CN1CCC(c2cc(C(F)(F)F)c3cn(-c4cccc(C5(Cc6nncn6C)COC5)c4)c(=O)n3c2)CC1 (single isomer, unassigned) [Compound 82] | < 100 nM
21 | CC(C)CN(C)Cc1cc(C(F)(F)F)c2cn(-c3cccc([C@H](c4nncn4C)C4CCC4)c3)c(=O)n2c1 [Compound 246] | < 100 nM
22 | Cn1cnnc1[C@@H](c1cccc(-n2cc3c(C(F)(F)F)cc(CN4Cc5ncsc5C4)cn3c2=O)c1)C1CCC1 [Compound 357] | < 100 nM
23 | C[C@H]1CCCN(Cc2cc(C(F)(F)F)c3cn(-c4cccc([C@]5(c6nncn6C)C[C@@H](O)C5)c4)c(=O)n3c2)C1 [Compound 255] | < 100 nM
24 | CC1CC(c2cccc(-n3cc4c(C(F)(F)F)cc(C#N)cn4c3=O)c2)(c2nncn2C)C1 (centres unmarked) [Compound 184] | < 100 nM
25 | C[C@@H]1CN([C@@H](C)c2cc(C(F)(F)F)c3cn(-c4cccc([C@H](c5nncn5C)C5CCC5)c4)c(=O)n3c2)CCO1 (single isomer, unassigned) [Compound 234] | < 100 nM
26 | COc1cc(C(F)(F)F)c2cn(-c3cccc(C4(Cc5nncn5C)COC4)c3)c(=O)n2c1 [Compound 88] | 1000 to 3000 nM
27 | CO[C@H]1CCCCN(Cc2cc(C(F)(F)F)c3cn(-c4cccc([C@H](c5nncn5C)C5CCC5)c4)c(=O)n3c2)C1 (single isomer, unassigned) [Compound 261] | < 100 nM
28 | Cn1cnnc1[C@@H](c1cccc(-n2cc3c(C(F)(F)F)cc(CN4CCC(=O)N4)cn3c2=O)c1)C1CCC1 [Compound 258] | < 100 nM
29 | Cn1cnnc1[C@@H]1C[C@@H]1c1cccc(-n2cc3c(C(F)(F)F)cccn3c2=O)c1 [Compound 43] | 3000 to 10000 nM
30 | COC1CN(Cc2cc(C(F)(F)F)c3cn(-c4cccc([C@H](c5nncn5C)C5CCC5)c4)c(=O)n3c2)C1 [Compound 312] | < 100 nM

Same assay, conditions: second part of Table 2 (head 'Patent Cmpd No / Updated Activity'); same CBL-B TR-FRET IC50 bins A-F; read-out: Updated Activity

Row | SMILES | IC50
31 | C[C@H]1C[C@@H](O)CN(Cc2cc(C(F)(F)F)c3cn(-c4cccc([C@H](c5nncn5C)C5CCC5)c4)c(=O)n3c2)C1 (single isomer, unassigned) [Compound 587] | < 100 nM
32 | CO[C@H]1C[C@@](c2cccc(-n3cc4c(C(F)(F)F)cc([C@H](C)N5CCC[C@H](C)C5)cn4c3=O)c2)(c2nncn2C)C1 (single isomer, unassigned) [Compound 601] | < 100 nM
33 | Cn1cnnc1[C@@H](c1cccc(-n2cc3c(C(F)(F)F)cc(CN4CC(C#N)C4)cn3c2=O)c1)C1CCC1 [Compound 549] | < 100 nM
34 | C[C@H](c1cc(C(F)(F)F)c2cn(-c3cccc([C@H](c4nncn4C)C4CCC4)c3)c(=O)n2c1)N1CC[C@@H](F)C1 (single isomer, unassigned) [Compound 500] | < 100 nM
35 | CC(=O)N1CCC[C@H](c2cc(C(F)(F)F)c3cn(-c4cccc([C@H](c5nncn5C)C5CCC5)c4)c(=O)n3c2)C1 (single isomer, unassigned) [Compound 396] | 100 to 300 nM
36 | Cc1cnnn1[C@@H](c1cccc(-n2cc3c(C(F)(F)F)cc(CN4CCC[C@H](C)C4)cn3c2=O)c1)C1CCC1 (single isomer, unassigned) [Compound 583] | 3000 to 10000 nM
37 | COC[C@H]1C[C@@H]([C@@H](c2cccc(-n3cc4c(C(F)(F)F)cc(CN5CCC[C@H](C)C5)cn4c3=O)c2)c2nncn2C)C1 (single isomer, unassigned) [Compound 492] | > 10000 nM
38 | Cn1cnnc1[C@@H](c1cc(-c2cncnc2)cc(-n2cc3c(C(F)(F)F)cccn3c2=O)c1)C1CCC1 (single isomer, unassigned) [Compound 448] | > 10000 nM
39 | COCCS(=O)(=O)N(C)Cc1cc(C(F)(F)F)c2cn(-c3cccc([C@H](c4nncn4C)C4CCC4)c3)c(=O)n2c1 [Compound 594] | < 100 nM
40 | Cn1cnnc1[C@@H](c1cccc(-n2cc3c(C(F)(F)F)cc(CN4CCC5(CCNC5=O)CC4)cn3c2=O)c1)C1CCC1 [Compound 609] | < 100 nM
41 | Cn1cnnc1[C@H](c1cc(-c2ccsn2)cc(-n2cc3c(C(F)(F)F)cccn3c2=O)c1)C1CCC1 (single isomer, unassigned) [Compound 460] | > 10000 nM
42 | COCC[C@H](c1cccc(-n2cc3c(C(F)(F)F)cc(CN4CCC[C@H](C)C4)cn3c2=O)c1)c1nncn1C (single isomer, unassigned) [Compound 399] | < 100 nM
43 | C[C@@H]1C[C@H](O)CN(Cc2cc(C(F)(F)F)c3cn(-c4cccc([C@H](c5nncn5C)C5CCC5)c4)c(=O)n3c2)C1 (single isomer, unassigned) [Compound 589] | < 100 nM
44 | CN(CC(=O)O)Cc1cc(C(F)(F)F)c2cn(-c3cccc([C@H](c4nncn4C)C4CCC4)c3)c(=O)n2c1 [Compound 522] | < 100 nM
45 | CCN(Cc1cc(C(F)(F)F)c2cn(-c3cccc([C@H](c4nncn4C)C4CCC4)c3)c(=O)n2c1)S(C)(=O)=O [Compound 591] | < 100 nM
46 | C[C@@H]1CN(Cc2cc(C(F)(F)F)c3cn(-c4cc(C#N)cc([C@@H](c5nncn5C)C5CCC5)c4)c(=O)n3c2)CCO1 (single isomer, unassigned) [Compound 517] | > 10000 nM
47 | Cn1cnnc1[C@@H](c1cccc(-n2cc3c(C(F)(F)F)cc(CN4CCC5(CC5)C4)cn3c2=O)c1)C1COC1 [Compound 412] | < 100 nM
48 | C[C@H]1CCCN(Cc2cc(C(F)(F)F)c3cn(-c4cccc([C@@H](c5nc(CO)cn5C)C5CCC5)c4)c(=O)n3c2)C1 (single isomer, unassigned) [Compound 584] | > 10000 nM
49 | C[C@H]1CCCN(Cc2cc(C(F)(F)F)c3cn(-c4cccc([C@H](c5nncn5C)[C@H]5C[C@H](O)C5)c4)c(=O)n3c2)C1 (single isomer, unassigned) [Compound 435] | > 10000 nM
50 | Cn1cnnc1[C@@H](c1cccc(-n2cc3c(C(F)(F)F)cc(CN4CCCC(n5cnnc5)C4)cn3c2=O)c1)C1CCC1 (some centres unmarked) [Compound 625] | < 100 nM
51 | Cn1cnnc1[C@H](c1cc(-c2cnoc2)cc(-n2cc3c(C(F)(F)F)cccn3c2=O)c1)C1CCC1 (single isomer, unassigned) [Compound 454] | 1000 to 3000 nM
52 | Cn1cnnc1[C@@H](c1cc(-c2ccncn2)cc(-n2cc3c(C(F)(F)F)cccn3c2=O)c1)C1CCC1 (single isomer, unassigned) [Compound 442] | > 10000 nM
53 | [2H]C([2H])(c1cc(C(F)(F)F)c2cn(-c3cccc([C@H](c4nncn4C)C4CCC4)c3)c(=O)n2c1)N1CC2(CC2)C1 [Compound 504] | < 100 nM
54 | CN(C)C(=O)N(C)Cc1cc(C(F)(F)F)c2cn(-c3cccc([C@H](c4nncn4C)C4CCC4)c3)c(=O)n2c1 [Compound 484] | < 100 nM
55 | C[C@H]1CCCN(Cc2cc(C(F)(F)F)c3cn(-c4cccc([C@H](c5nncn5C)N5CC(O)C5)c4)c(=O)n3c2)C1 (single isomer, unassigned) [Compound 406] | 100 to 300 nM
56 | Cn1cnnc1[C@@H](c1cccc(-n2cc3c(C(F)(F)F)cc(CN4CCCCS4(=O)=O)cn3c2=O)c1)C1CCC1 [Compound 543] | < 100 nM
